Assay results taken from PubChem BioAssay AID270 (DTP/NCI, 2004).
Values joined by “and” are separate entries in the source; they are usually repeats but may differ in a detail not shown here. Equal entries are not always repeated. Records with an inconclusive call do not appear.

System: BDF1 mice, s.c. Lewis lung carcinoma, T/C %
Assay: NCI In Vivo Anticancer Drug Screen. Data for tumor model Lewis Lung Carcinoma (subcutaneous) in B6D2F1 (BDF1) mice
Procedure, shortened: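 The value reflects a ratio in which the treated cohort's survival time or tumour size is compared against mice receiving only vehicle.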

With `CC1CC(C)(O)C2C3(C)CCCC2(COC3=O)C12CCC1(CCOC1=O)O2` (stereo not given) the T/C (endpoint: median survival time, dose: 2.5 mg/kg/injection, schedule: Q01DX009 (ip), vehicle: saline with Tween-80, higher = longer survival) was 109 % of control, the T/C (endpoint: median survival time, dose: 5.0 mg/kg/injection, schedule: Q01DX009 (ip), vehicle: saline with Tween-80, higher = longer survival) was 108 % of control and the T/C (endpoint: median survival time, dose: 10.0 mg/kg/injection, schedule: Q01DX009 (ip), vehicle: saline with Tween-80, higher = longer survival) was 100 % of control.

In the case of `O=NN(CCCl)C(=O)NC1CCS(=O)(=O)CC1`, the T/C (endpoint: median survival time, dose: 5.0 mg/kg/injection, schedule: Q04DX004 (ip), vehicle: Klucel (hydroxypropylcellulose) (HPC), higher = longer survival) is reported as 180 % of control, the T/C (endpoint: median survival time, dose: 7.0 mg/kg/injection, schedule: Q04DX004 (ip), vehicle: Klucel (hydroxypropylcellulose) (HPC), higher = longer survival) is reported as 231 % of control and the T/C (endpoint: median survival time, dose: 7.0 mg/kg/injection, schedule: Q04DX004 (ip), vehicle: carboxymethylcellulose (CMC), higher = longer survival) is reported as 121 % of control and 345 % of control. For the same compound, the T/C (endpoint: median survival time, dose: 8.5 mg/kg/injection, schedule: Q04DX004 (ip), vehicle: carboxymethylcellulose (CMC), higher = longer survival) was 109 % of control, the T/C (endpoint: median survival time, dose: 8.5 mg/kg/injection, schedule: Q07DX002 (ip), vehicle: carboxymethylcellulose (CMC), higher = longer survival) was 218 % of control and the T/C (endpoint: median survival time, dose: 10.0 mg/kg/injection, schedule: Q04DX004 (ip), vehicle: carboxymethylcellulose (CMC), higher = longer survival) was 123 % of control. The T/C (endpoint: median survival time, dose: 11.0 mg/kg/injection, schedule: Q07DX002 (ip), vehicle: carboxymethylcellulose (CMC), higher = longer survival) was 381 % of control and the T/C (endpoint: median survival time, dose: 14.0 mg/kg/injection, schedule: Q07DX002 (ip), vehicle: carboxymethylcellulose (CMC), higher = longer survival) was 200 % of control.

With `CCCCn1cnc2c(SC)nc(N)nc21` the T/C (endpoint: mean tumor weight, dose: 30.0 mg/kg/injection, schedule: Q01DX011 (ip), vehicle: other, higher = larger tumour) was 79 % of control, the T/C (endpoint: mean tumor weight, dose: 60.0 mg/kg/injection, schedule: Q01DX011 (ip), vehicle: other, higher = larger tumour) was 103 % of control and the T/C (endpoint: mean tumor weight, dose: 120.0 mg/kg/injection, schedule: Q01DX011 (ip), vehicle: other, higher = larger tumour) was 124 % of control.

With `N[C@@H](Cc1ccc(N(CCCl)CCCl)cc1)C(=O)O` the T/C (endpoint: mean tumor weight, dose: 0.5 mg/kg/injection, schedule: Q01DX011 (ip), vehicle: saline, higher = larger tumour) was 76 % of control, the T/C (endpoint: mean tumor weight, dose: 0.8 mg/kg/injection, schedule: Q01DX011 (ip), vehicle: carboxymethylcellulose (CMC), higher = larger tumour) was 71 % of control and the T/C (endpoint: mean tumor weight, dose: 1.0 mg/kg/injection, schedule: Q01DX011 (ip), vehicle: saline, higher = larger tumour) was 46 % of control. For the same compound, the T/C (endpoint: mean tumor weight, dose: 1.6 mg/kg/injection, schedule: Q01DX011 (ip), vehicle: carboxymethylcellulose (CMC), higher = larger tumour) was 70 % of control, the T/C (endpoint: mean tumor weight, dose: 2.0 mg/kg/injection, schedule: Q01DX011 (ip), vehicle: saline, higher = larger tumour) was 46 % of control and the T/C (endpoint: mean tumor weight, dose: 2.4 mg/kg/injection, schedule: Q01DX011 (ip), vehicle: carboxymethylcellulose (CMC), higher = larger tumour) was 68 % of control and 69 % of control. The T/C (endpoint: mean tumor weight, dose: 3.6 mg/kg/injection, schedule: Q01DX011 (ip), vehicle: carboxymethylcellulose (CMC), higher = larger tumour) was 45 % of control, the T/C (endpoint: mean tumor weight, dose: 4.0 mg/kg/injection, schedule: Q01DX011 (ip), vehicle: saline, higher = larger tumour) was 21 % of control and the T/C (endpoint: mean tumor weight, dose: 5.4 mg/kg/injection, schedule: Q01DX011 (ip), vehicle: carboxymethylcellulose (CMC), higher = larger tumour) was 20 % of control. The T/C (endpoint: median survival time, dose: 0.04 mg/kg/injection, schedule: Q01DX009 (ip), vehicle: saline, higher = longer survival) was 115 % of control, the T/C (endpoint: median survival time, dose: 0.08 mg/kg/injection, schedule: Q01DX009 (ip), vehicle: saline, higher = longer survival) was 103 % of control and the T/C (endpoint: median survival time, dose: 0.31 mg/kg/injection, schedule: Q01DX009 (ip), vehicle: saline, higher = longer survival) was 107 % of control. For the same compound, the T/C (endpoint: median survival time, dose: 0.5 mg/kg/injection, schedule: Q01DX009 (ip), vehicle: saline with Tween-80, higher = longer survival) was 101 % of control, the T/C (endpoint: median survival time, dose: 0.5 mg/kg/injection, schedule: Q01DX009 (ip), vehicle: saline, higher = longer survival) was 104 % of control and 122 % of control and the T/C (endpoint: median survival time, dose: 0.75 mg/kg/injection, schedule: Q01DX009 (ip), vehicle: saline, higher = longer survival) was 102 % of control. The T/C (endpoint: median survival time, dose: 1.0 mg/kg/injection, schedule: Q01DX009 (ip), vehicle: Klucel (hydroxypropylcellulose) (HPC), higher = longer survival) was 107 % of control, the T/C (endpoint: median survival time, dose: 1.0 mg/kg/injection, schedule: Q01DX009 (ip), vehicle: saline with Tween-80, higher = longer survival) was 108 % of control and the T/C (endpoint: median survival time, dose: 1.0 mg/kg/injection, schedule: Q01DX009 (ip), vehicle: saline, higher = longer survival) was 107 % of control. For the same compound, the T/C (endpoint: median survival time, dose: 1.5 mg/kg/injection, schedule: Q01DX009 (ip), vehicle: saline, higher = longer survival) was 93 % of control, the T/C (endpoint: median survival time, dose: 2.0 mg/kg/injection, schedule: Q01DX001 (ip), vehicle: saline, higher = longer survival) was 106 % of control and the T/C (endpoint: median survival time, dose: 2.0 mg/kg/injection, schedule: Q01DX009 (ip), vehicle: Klucel (hydroxypropylcellulose) (HPC), higher = longer survival) was 89 % of control. The T/C (endpoint: median survival time, dose: 2.0 mg/kg/injection, schedule: Q01DX009 (ip), vehicle: saline with Tween-80, higher = longer survival) was 97 % of control, the T/C (endpoint: median survival time, dose: 2.5 mg/kg/injection, schedule: Q01DX001 (ip), vehicle: saline, higher = longer survival) was 100 % of control and the T/C (endpoint: median survival time, dose: 2.5 mg/kg/injection, schedule: Q01DX001 (ip), vehicle: water, higher = longer survival) was 90 % of control. The T/C (endpoint: median survival time, dose: 3.0 mg/kg/injection, schedule: Q01DX009 (ip), vehicle: saline, higher = longer survival) was 116 % of control, the T/C (endpoint: median survival time, dose: 4.0 mg/kg/injection, schedule: Q01DX001 (ip), vehicle: saline, higher = longer survival) was 100 % of control and the T/C (endpoint: median survival time, dose: 4.0 mg/kg/injection, schedule: Q01DX009 (ip), vehicle: Klucel (hydroxypropylcellulose) (HPC), higher = longer survival) was 104 % of control. For the same compound, the T/C (endpoint: median survival time, dose: 4.0 mg/kg/injection, schedule: Q01DX009 (ip), vehicle: saline, higher = longer survival) was 100 % of control and 123 % of control, the T/C (endpoint: median survival time, dose: 4.0 mg/kg/injection, schedule: Q04DX003 (ip), vehicle: saline, higher = longer survival) was 119 % of control and the T/C (endpoint: median survival time, dose: 5.0 mg/kg/injection, schedule: Q01DX001 (ip), vehicle: water, higher = longer survival) was 109 % of control. The T/C (endpoint: median survival time, dose: 8.0 mg/kg/injection, schedule: Q01DX001 (ip), vehicle: saline, higher = longer survival) was 112 % of control, the T/C (endpoint: median survival time, dose: 8.0 mg/kg/injection, schedule: Q01DX009 (ip), vehicle: saline, higher = longer survival) was 86 % of control and the T/C (endpoint: median survival time, dose: 8.0 mg/kg/injection, schedule: Q04DX003 (ip), vehicle: saline, higher = longer survival) was 107 % of control. The T/C (endpoint: median survival time, dose: 10.0 mg/kg/injection, schedule: Q01DX001 (ip), vehicle: saline, higher = longer survival) was 100 % of control, the T/C (endpoint: median survival time, dose: 10.0 mg/kg/injection, schedule: Q01DX001 (ip), vehicle: water, higher = longer survival) was 104 % of control and the T/C (endpoint: median tumor weight (est.), dose: 6.3 mg/kg/injection, schedule: Q01DX001 (ip), vehicle: carboxymethylcellulose (CMC), higher = larger tumour) was 41 % of control. For the same compound, the T/C (endpoint: median tumor weight (est.), dose: 13.0 mg/kg/injection, schedule: Q01DX001 (ip), vehicle: carboxymethylcellulose (CMC), higher = larger tumour) was 39 % of control.

With `NNc1nncc2ccccc12` the T/C (endpoint: mean tumor weight, dose: 13.0 mg/kg/injection, schedule: Q01DX011 (ip), vehicle: carboxymethylcellulose (CMC), higher = larger tumour) was 111 % of control, the T/C (endpoint: mean tumor weight, dose: 20.0 mg/kg/injection, schedule: Q01DX011 (ip), vehicle: carboxymethylcellulose (CMC), higher = larger tumour) was 87 % of control and the T/C (endpoint: mean tumor weight, dose: 30.0 mg/kg/injection, schedule: Q01DX011 (ip), vehicle: carboxymethylcellulose (CMC), higher = larger tumour) was 110 % of control.

For `CCCCCC(=O)O[C@]1(C(C)=O)CC[C@H]2[C@@H]3CCC4=CC(=O)CC[C@]4(C)[C@H]3CC[C@@]21C`, the T/C (endpoint: mean tumor weight, dose: 375.0 mg/kg/injection, schedule: Q01DX011 (sc), vehicle: steriod suspending solution, higher = larger tumour) was 89 % of control and 99 % of control and the T/C (endpoint: mean tumor weight, dose: 750.0 mg/kg/injection, schedule: Q01DX011 (sc), vehicle: steriod suspending solution, higher = larger tumour) was 91 % of control and 92 % of control.

For `CN(/N=N/N(C)c1ccccc1)c1ccccc1`, the T/C (endpoint: mean tumor weight, dose: 15.6 mg/kg/injection, schedule: Q01DX011 (ip), vehicle: carboxymethylcellulose (CMC), higher = larger tumour) was 77 % of control, the T/C (endpoint: mean tumor weight, dose: 31.3 mg/kg/injection, schedule: Q01DX011 (ip), vehicle: carboxymethylcellulose (CMC), higher = larger tumour) was 66 % of control and the T/C (endpoint: mean tumor weight, dose: 62.5 mg/kg/injection, schedule: Q01DX011 (ip), vehicle: carboxymethylcellulose (CMC), higher = larger tumour) was 52 % of control. The T/C (endpoint: mean tumor weight, dose: 125.0 mg/kg/injection, schedule: Q01DX011 (ip), vehicle: carboxymethylcellulose (CMC), higher = larger tumour) was 48 % of control.

In the case of `COc1cc(O)c2c(c1)C(=O)c1cc3c(c(O)c1C2=O)C(O)C(OC)C(C)(O)C3=O` (stereo not given), the T/C (endpoint: median survival time, dose: 12.5 mg/kg/injection, schedule: Q01DX009 (ip), vehicle: water, higher = longer survival) is reported as 109 % of control, the T/C (endpoint: median survival time, dose: 25.0 mg/kg/injection, schedule: Q01DX009 (ip), vehicle: Klucel (hydroxypropylcellulose) (HPC), higher = longer survival) is reported as 95 % of control and the T/C (endpoint: median survival time, dose: 25.0 mg/kg/injection, schedule: Q01DX009 (ip), vehicle: water, higher = longer survival) is reported as 89 % of control. For the same compound, the T/C (endpoint: median survival time, dose: 50.0 mg/kg/injection, schedule: Q01DX009 (ip), vehicle: Klucel (hydroxypropylcellulose) (HPC), higher = longer survival) was 103 % of control, the T/C (endpoint: median survival time, dose: 50.0 mg/kg/injection, schedule: Q01DX009 (ip), vehicle: water, higher = longer survival) was 124 % of control and the T/C (endpoint: median survival time, dose: 100.0 mg/kg/injection, schedule: Q01DX009 (ip), vehicle: Klucel (hydroxypropylcellulose) (HPC), higher = longer survival) was 100 % of control. For the same compound, the T/C (endpoint: median survival time, dose: 100.0 mg/kg/injection, schedule: Q01DX009 (ip), vehicle: water, higher = longer survival) was 103 % of control and the T/C (endpoint: median survival time, dose: 200.0 mg/kg/injection, schedule: Q01DX009 (ip), vehicle: water, higher = longer survival) was 90 % of control.

With `C[n+]1cccc(C(=O)O)c1` the T/C (endpoint: mean tumor weight, dose: 50.0 mg/kg/injection, schedule: Q01DX011 (ip), vehicle: saline, higher = larger tumour) was 116 % of control, the T/C (endpoint: mean tumor weight, dose: 100.0 mg/kg/injection, schedule: Q01DX011 (ip), vehicle: saline, higher = larger tumour) was 75 % of control and the T/C (endpoint: mean tumor weight, dose: 200.0 mg/kg/injection, schedule: Q01DX011 (ip), vehicle: saline, higher = larger tumour) was 60 % of control.

`CNC1=C(N2CC2)C(=O)C(NC)=C(N2CC2)C1=O` was tested, and the T/C (endpoint: median survival time, dose: 0.02 mg/kg/injection, schedule: Q01DX009 (ip), vehicle: saline, higher = longer survival) was 120 % of control, the T/C (endpoint: median survival time, dose: 0.1 mg/kg/injection, schedule: Q01DX009 (ip), vehicle: saline, higher = longer survival) was 113 % of control and the T/C (endpoint: median survival time, dose: 0.2 mg/kg/injection, schedule: Q01DX009 (ip), vehicle: saline, higher = longer survival) was 105 % of control. The T/C (endpoint: median survival time, dose: 0.4 mg/kg/injection, schedule: Q01DX009 (ip), vehicle: saline, higher = longer survival) was 124 % of control.
